Measurements as given in patent publication US6933321B2, “Antiandrogenic biphenyls” (Endorecherche, Inc., priority 2002, dated 2005).
Read-outs that look alike come from different tables or passages of the source.

Tested on: Shionogi mouse mammary carcinoma cells
Test: Antiandrogenic activity on DHT-stimulated Shionogi mouse mammary carcinoma cell number
Format: cell-based
Settings: for A = Ki OH-Flu/Ki compound: ratio of Ki of hydroxyflutamide versus tested compound, higher values preferable
[1] = Mus musculus, read-out: Antiandrogenic activity IC50 (nM)
[2] = inhibition of DHT-stimulated Shionogi cell number
[3] = Mus musculus, inhibition of DHT-stimulated Shionogi cell number, 10-12 days, read-out: Antiandrogenic activity IC50

Row | IC50 (inhibition of DHT-stimulated Shionogi cell number, 10-12 days, read-out: Antiandrogenic activity IC50) | SMILES | IC50 [1] | A = Ki OH-Flu/Ki compound [2] | IC50 [3]
1 |  | Cc1cc(C#N)ccc1-c1ccc(C#N)c(C(F)(F)F)c1 [EM-4079] | 78 nM | 0.8 | 
2 |  | N#Cc1ccc(-c2ccc(C#N)c(Cl)c2)cc1 [EM-4281] |  | 0.6 | 145 nM
3 |  | CC(=O)Nc1cc(-c2ccc(C#N)c(C(F)(F)F)c2)c(C(N)=O)cc1F [EM-5002] |  | <0.2 | > 500 nM
4 |  | N#Cc1ccc(-c2c(F)cc(F)cc2[N+](=O)[O-])cc1C(F)(F)F [EM-4948] |  | <0.2 | > 500 nM
5 |  | N#Cc1ccc(-c2ccc(F)cc2C(=O)Nc2ccc(F)cc2)cc1C(F)(F)F [EM-5018] |  | <0.2 | > 500 nM
6 |  | N#Cc1ccc(-c2ccc(F)cc2C(=O)N2CCCC2)cc1C(F)(F)F [EM-5014] |  | <0.2 | > 500 nM
7 |  | CN(C)C(=O)Nc1ccc(-c2ccc(C#N)c(C(F)(F)F)c2)cc1 [EM-4206] |  | <0.2 | > 500 nM
8 |  | COc1ccc(-c2ccc(C#N)cc2)cc1C(F)(F)F [EM-4246] |  | <0.2 | > 500 nM
9 |  | COC=Nc1cc(F)cc(C(N)=O)c1-c1ccc(C#N)c(C(F)(F)F)c1 [EM-5093] |  | <0.2 | > 500 nM
10 |  | CCCCN(CCCC)C(=O)c1cc(F)ccc1-c1ccc(C#N)c(C(F)(F)F)c1 [EM-4844] |  | <0.2 | > 500 nM
11 |  | CCN(CC)C(=O)c1ccc(-c2ccc(C#N)c(C(F)(F)F)c2)cc1 [EM-3987] |  | <0.2 | > 500 nM
12 |  | COc1ccc(-c2ccc(C#N)c(C(F)(F)F)c2)c(Cl)c1 [EM-4190] |  | 0.9 | 162 nM
13 |  | COc1ccc(-c2ccc(C#N)cc2)cc1Br [EM-4036] |  | <0.2 | > 500 nM
14 |  | COc1ccc(-c2ccc([N+](=O)[O-])cc2)cc1 [EM-3234] |  | <0.2 | > 500 nM
15 |  | Cc1cc(F)cc([N+](=O)[O-])c1-c1ccc(C#N)c(C(F)(F)F)c1 [EM-4947] |  | <0.2 | > 500 nM
16 |  | N#Cc1ccc(-c2ccc(F)c(Cl)c2)cc1C(F)(F)F [EM-4216] |  | <0.2 | > 500 nM
17 |  | N#Cc1ccc(-c2ccc(Br)cc2C(N)=O)cc1C(F)(F)F [EM-4979] |  | <0.2 | > 500 nM
18 |  | Cc1cc(-c2ccc(C#N)c(C(F)(F)F)c2)ccc1C#N [EM-4069] |  | 0.7 | 110 nM

Row | IC50 (inhibition of DHT-stimulated Shionogi cell number, 10-12 days, read-out: Antiandrogenic activity IC50) | SMILES | IC50 [1] | A = Ki OH-Flu/Ki compound [2] | IC50 [3]
19 |  | N#Cc1ccc(-c2ccc(F)cc2F)cc1F [EM-4282] |  | <0.2 | > 500 nM
20 |  | N#Cc1ccc(-c2ccc(F)cc2F)cc1C(F)(F)F [EM-3975] |  | 0.77 | 131 nM
21 |  | CN(C)c1ccc(-c2ccc(C#N)c(C(F)(F)F)c2)cc1 [EM-3814] |  | 0.9 | 150 nM
22 |  | N#Cc1cc(F)c(-c2ccc(F)cc2F)cc1Cl [EM-5111] |  | <0.2 | > 500 nM
23 |  | CCOc1ccc(-c2ccc(C#N)c(C(F)(F)F)c2)c(C(N)=O)c1 [EM-4925] |  | <0.2 | > 500 nM
24 |  | CCCNC(=O)c1cc(F)ccc1-c1ccc(C#N)c(C(F)(F)F)c1 [EM-4855] |  | <0.2 | > 500 nM
25 |  | N#Cc1cccc(-c2ccc(C#N)c(C(F)(F)F)c2)c1 [EM-3729] |  | <0.2 | > 500 nM
26 |  | N#Cc1ccc(-c2ccc(F)cc2C(=O)NCc2ccccc2)cc1C(F)(F)F [EM-5085] |  | <0.2 | > 500 nM
27 |  | C[S+]([O-])c1ccc(-c2ccc(C#N)c(C(F)(F)F)c2)cc1 (stereo not drawn) [EM-3812] |  | <0.2 | > 500 nM
28 |  | Cc1cc(C#N)c(Cl)cc1-c1ccc(F)cc1F [EM-5112] | 97 nM | 1.1 | 
29 |  | N#Cc1ccc(-c2c(F)cc(F)cc2C(F)(F)F)cc1C(F)(F)F [EM-5004] |  | <0.2 | > 500 nM
30 |  | N#Cc1ccc(-c2ccc(C#N)c(C(F)(F)F)c2)cc1F [EM-4065] | > 500 nM | <0.2 | 
31 |  | CS(=O)(=O)c1cc(-c2ccc(F)cc2F)ccc1C#N [EM-4292] |  | <0.2 | > 500 nM
32 |  | N#Cc1ccc(-c2cccc(F)c2)cc1C(F)(F)F [EM-3977] |  | <0.2 | > 500 nM
33 |  | N#Cc1ccc(-c2ccc(F)cc2C(=O)N2CCOCC2)cc1C(F)(F)F [EM-5021] |  | <0.2 | > 500 nM
34 | > 500 nM | N#Cc1ccc(-c2ccc(F)cc2C(=O)Nc2ccc(Cl)cc2)cc1C(F)(F)F [EM-5086] |  | <0.2 | 
35 |  | N#Cc1ccc(-c2ccc(F)cc2F)cc1[N+](=O)[O-] [EM-4633] |  | 0.8 | 96 nM
36 |  | CN(C)c1ccc(NC(=O)c2cc(F)ccc2-c2ccc(C#N)c(C(F)(F)F)c2)cc1 [EM-5083] |  | <0.2 | > 500 nM
